Experimental data taken from patent US20170368082A1, “FORMULATIONS OF BRINCIDOFOVIR” (priority 2016, published 2017).
Where “and” joins values, the source holds several entries; their conditions need not be identical. Identical values can stand only once. Like-named read-outs stand apart in the source and are kept apart here.

Assay: Phase 2 toxicokinetics of brincidofovir and cidofovir in plasma
Assay type: in vivo, Sprague-Dawley CD rats
Parameters: Imputed Concentration, Mean: unit: ng/mL
Settings: for cidofovir Concentration (C): individual animals; for concentration at 1 h / concentration at 2 h / concentration at 8 h / concentration at 24 h / concentration at 0 h: Sprague-Dawley CD, rat, intravenous, 1 mg/kg; for concentration at 1 h / concentration at 2 h / concentration at 8 h / concentration at 24 h / concentration at 0 h / Imputed Concentration, individual animals / Imputed Concentration, Mean: plasma, BLQ imputed as zero
Method: Plasma samples (108) were collected 2 hours following the initiation of dosing on Day 1 and Day 7 (Group 1), or at 1, 2, 8, and 24 hours following the initiation of dosing on Day 1, and prior to administration and at 2, 8, and 24 hours following the initiation of dosing on Day 7 (Groups 2 and 3), and analyzed to determine the concentrations of brincidofovir and the metabolite, cidofovir), by LC/MS/MS.
Approximately 0.4 mL of whole blood was obtained via the tail vein from each animal at each time point. Animals were not fasted prior to blood collection. Blood was collected into tubes containing K2EDTA anticoagulant and placed on wet ice in an upright position, per facility SOP prior to processing. Plasma was separated by centrifugation (10 minutes at approximately 2000 g, at approximately 2-8° C.). Approximately 0.10 mL of plasma was transferred into a single cryotube appropriately labeled with study number, animal number, time point, date of sampling and sample type. Remaining plasma was transferred into a second cryotube and retained as a backup sample. Plasma frozen at approximately −80±10° C. within approximately 2 hours after collection of each blood sample until analysis. Animals were euthanized (CO2 inhalation) after the final blood collection.
In general, TK parameters were estimated using mean plasma concentrations of brincidofovir and cidofovir derived from the composite blood sampling design using Phoenix WinNonLin (V 6.3).
A composite blood sampling design was used such that each rat was sampled twice per sampling day. Blood was collected via tail vein from unanesthetized animals into tubes containing anticoagulant and placed on wet ice in an upright position. Animals were not fasted prior to blood collection. Plasma was separated by centrifugation (for 10 minutes at approximately 2000 g, at approximately 2-8° C.), and transferred into individually labeled cryotubes. All cryotubes containing the collected plasma samples were appropriately labeled as to study number, animal number, time point, date of sampling and sample type. All plasma samples were obtained and frozen at approximately −80° C. (±10° C.) within approximately 2 hours after collection of each blood sample until analysis.
Rat plasma bioanalysis was conducted by Pyxant Laboratories. Plasma samples were analyzed for concentrations of brincidofovir and cidofovir using a method based upon protein precipitation extraction followed by LC-MS/MS analysis; calibration ranges for brincidofovir and cidofovir were 1.00-1500 ng/mL and 5.00-750 ng/mL, respectively, (Pyxant study number 3025) for a 50 μL aliquot of rat plasma. Sample analysis for ISR was not performed as part of this non-GLP study.
For the generation of Mean Profiles, all sample concentrations that were below the limit of quantitation (BLQ) were set to 0.
All pharmacokinetic parameter estimates were completed using a Non-Compartmental Model (Model 200-202 for IV infusion administration). The AUClast and AUCinf were calculated using the linear up log down trapezoidal rule.

[1] = brincidofovir 1 mg/kg 2-h IV infusion, female rats, Day 7, 0 h
[2] = brincidofovir 1 mg/kg 2-h IV infusion, female rats, Day 7, 2 h
[3] = brincidofovir 1 mg/kg 2-h IV infusion, female rats, Day 7, 8 h
[4] = brincidofovir 1 mg/kg 2-h IV infusion, female rats, Day 7, 24 h
[5] = brincidofovir 1 mg/kg 2-h IV infusion, male rats, Day 7, 2 h
[6] = brincidofovir 1 mg/kg 2-h IV infusion, male rats, Day 7, 8 h
[7] = brincidofovir 1 mg/kg 2-h IV infusion, male rats, Day 7, 24 h
[8] = brincidofovir 15 mg/kg 2-h IV infusion, female rats, Day 1, 1 h
[9] = brincidofovir 15 mg/kg 2-h IV infusion, female rats, Day 1, 2 h
[10] = brincidofovir 15 mg/kg 2-h IV infusion, female rats, Day 1, 8 h
[11] = brincidofovir 15 mg/kg 2-h IV infusion, female rats, Day 1, 24 h
[12] = brincidofovir 15 mg/kg 2-h IV infusion, female rats, Day 7, 0 h
[13] = brincidofovir 15 mg/kg 2-h IV infusion, female rats, Day 7, 2 h
[14] = brincidofovir 15 mg/kg 2-h IV infusion, male rats, Day 1, 1 h
[15] = brincidofovir 15 mg/kg 2-h IV infusion, male rats, Day 1, 2 h
[16] = brincidofovir 15 mg/kg 2-h IV infusion, male rats, Day 1, 8 h
[17] = brincidofovir 15 mg/kg 2-h IV infusion, male rats, Day 1, 24 h
[18] = brincidofovir 15 mg/kg 2-h IV infusion, male rats, Day 7, 0 h
[19] = brincidofovir 15 mg/kg 2-h IV infusion, male rats, Day 7, 2 h

With `Nc1ccn(C[C@@H](CO)OCP(=O)(O)O)c(=O)n1` [Cidofovir] the “cidofovir Concentration (C)” value (brincidofovir 1 mg/kg, Female, Day 1, 1 h) was “BLQ”, the “cidofovir Concentration (C)” value (brincidofovir 1 mg/kg, Female, Day 1, 8 h) was “BLQ” and the “cidofovir Concentration (C)” value (brincidofovir 1 mg/kg, Female, Day 1, 24 h) was “BLQ”. The “cidofovir Concentration (C)” value (brincidofovir 1 mg/kg, Female, Day 7, 0 h) was “BLQ”, the “cidofovir Concentration (C)” value (brincidofovir 1 mg/kg, Female, Day 7, 24 h) was “BLQ” and the “cidofovir Concentration (C)” value (brincidofovir 1 mg/kg, Male, Day 1, 1 h) was “BLQ”. For the same compound, the “cidofovir Concentration (C)” value (brincidofovir 1 mg/kg, Male, Day 1, 2 h) was “BLQ”, the “cidofovir Concentration (C)” value (brincidofovir 1 mg/kg, Male, Day 1, 8 h) was “BLQ” and the “cidofovir Concentration (C)” value (brincidofovir 1 mg/kg, Male, Day 1, 24 h) was “BLQ”. For the same compound, the “cidofovir Concentration (C)” value (brincidofovir 1 mg/kg, Male, Day 7, 0 h) was “BLQ”, the “cidofovir Concentration (C)” value (brincidofovir 1 mg/kg, Male, Day 7, 2 h) was “BLQ” and the “cidofovir Concentration (C)” value (brincidofovir 1 mg/kg, Male, Day 7, 24 h) was “BLQ”. For the same compound, the “cidofovir Concentration (C)” value (brincidofovir 15 mg/kg, Female, Day 7, 0 h) was “BLQ”, the “cidofovir Concentration (C)” value (brincidofovir 15 mg/kg, Male, Day 1, 1 h) was “BLQ” and the “cidofovir Concentration (C)” value (brincidofovir 15 mg/kg, Male, Day 7, 0 h) was “BLQ”. It also gave a concentration at 1 h (female, brincidofovir 1 mg/kg 2-h IV infusion, female rats, Day 1, 1 h, read-out: Imputed Concentration, Mean) of 0 ng/mL, a concentration at 1 h (female, brincidofovir 1 mg/kg 2-h IV infusion, female rats, Day 1, 1 h, read-out: Imputed Concentration, individual animals) of 0 ng/mL and a concentration at 2 h (female, brincidofovir 1 mg/kg 2-h IV infusion, female rats, Day 1, 2 h, read-out: Imputed Concentration, Mean) of 9.35 ng/mL. For the same compound, the concentration at 2 h (female, brincidofovir 1 mg/kg 2-h IV infusion, female rats, Day 1, 2 h, read-out: Imputed Concentration, individual animals) was 9.62 ng/mL, the concentration at 8 h (female, brincidofovir 1 mg/kg 2-h IV infusion, female rats, Day 1, 8 h, read-out: Imputed Concentration, Mean) was 4.24 ng/mL and the concentration at 24 h (female, brincidofovir 1 mg/kg 2-h IV infusion, female rats, Day 1, 24 h, read-out: Imputed Concentration, Mean) was 0 ng/mL. It also gave a concentration at 24 h (female, brincidofovir 1 mg/kg 2-h IV infusion, female rats, Day 1, 24 h, read-out: Imputed Concentration, individual animals) of 0 ng/mL, a concentration at 0 h (female, brincidofovir 1 mg/kg 2-h IV infusion, female rats, Day 7, 0 h, read-out: Imputed Concentration, individual animals) of 0 ng/mL and a concentration at 1 h (male, brincidofovir 1 mg/kg 2-h IV infusion, male rats, Day 1, 1 h, read-out: Imputed Concentration, Mean) of 0 ng/mL. The concentration at 1 h (male, brincidofovir 1 mg/kg 2-h IV infusion, male rats, Day 1, 1 h, read-out: Imputed Concentration, individual animals) was 0 ng/mL, the concentration at 2 h (male, brincidofovir 1 mg/kg 2-h IV infusion, male rats, Day 1, 2 h, read-out: Imputed Concentration, Mean) was 0 ng/mL and the concentration at 2 h (male, brincidofovir 1 mg/kg 2-h IV infusion, male rats, Day 1, 2 h, read-out: Imputed Concentration, individual animals) was 0 ng/mL. It also gave a concentration at 8 h (male, brincidofovir 1 mg/kg 2-h IV infusion, male rats, Day 1, 8 h, read-out: Imputed Concentration, Mean) of 1.95 ng/mL, a concentration at 24 h (male, brincidofovir 1 mg/kg 2-h IV infusion, male rats, Day 1, 24 h, read-out: Imputed Concentration, Mean) of 0 ng/mL and a concentration at 24 h (male, brincidofovir 1 mg/kg 2-h IV infusion, male rats, Day 1, 24 h, read-out: Imputed Concentration, individual animals) of 0 ng/mL. The concentration at 0 h (male, brincidofovir 1 mg/kg 2-h IV infusion, male rats, Day 7, 0 h, read-out: Imputed Concentration, Mean) was 0 ng/mL, the concentration at 0 h (male, brincidofovir 1 mg/kg 2-h IV infusion, male rats, Day 7, 0 h, read-out: Imputed Concentration, individual animals) was 0 ng/mL and the “Imputed Concentration, individual animals” value (brincidofovir 1 mg/kg 2-h IV infusion, female rats, Day 1, 1 h) was 0.00 ng/mL. The “Imputed Concentration, individual animals” value (brincidofovir 1 mg/kg 2-h IV infusion, female rats, Day 1, 2 h) was 6.22 ng/mL and 12.2 ng/mL, the “Imputed Concentration, individual animals” value (brincidofovir 1 mg/kg 2-h IV infusion, female rats, Day 1, 8 h) was 7.12 ng/mL and 5.60 ng/mL and 0.00 ng/mL and the “Imputed Concentration, individual animals” value (brincidofovir 1 mg/kg 2-h IV infusion, female rats, Day 1, 24 h) was 0.00 ng/mL. The “Imputed Concentration, Mean” value [1] was 0.00 ng/mL, the “Imputed Concentration, individual animals” value [1] was 0.00 ng/mL and the “Imputed Concentration, Mean” value [2] was 15.0 ng/mL. For the same compound, the “Imputed Concentration, individual animals” value [2] was 13.5 ng/mL and 13.8 ng/mL and 17.6 ng/mL, the “Imputed Concentration, Mean” value [3] was 7.57 ng/mL and the “Imputed Concentration, individual animals” value [3] was 9.51 ng/mL and 7.84 ng/mL and 5.36 ng/mL. For the same compound, the “Imputed Concentration, Mean” value [4] was 0.00 ng/mL, the “Imputed Concentration, individual animals” value [4] was 0.00 ng/mL and the “Imputed Concentration, individual animals” value (brincidofovir 1 mg/kg 2-h IV infusion, male rats, Day 1, 1 h) was 0.00 ng/mL. For the same compound, the “Imputed Concentration, individual animals” value (brincidofovir 1 mg/kg 2-h IV infusion, male rats, Day 1, 2 h) was 0.00 ng/mL, the “Imputed Concentration, individual animals” value (brincidofovir 1 mg/kg 2-h IV infusion, male rats, Day 1, 8 h) was 5.85 ng/mL and 0.00 ng/mL (2×) and the “Imputed Concentration, individual animals” value (brincidofovir 1 mg/kg 2-h IV infusion, male rats, Day 1, 24 h) was 0.00 ng/mL. For the same compound, the “Imputed Concentration, individual animals” value (brincidofovir 1 mg/kg 2-h IV infusion, male rats, Day 7, 0 h) was 0.00 ng/mL, the “Imputed Concentration, Mean” value [5] was 0.00 ng/mL and the “Imputed Concentration, individual animals” value [5] was 0.00 ng/mL. For the same compound, the “Imputed Concentration, Mean” value [6] was 5.73 ng/mL, the “Imputed Concentration, individual animals” value [6] was 5.67 ng/mL and 5.45 ng/mL and 6.07 ng/mL and the “Imputed Concentration, Mean” value [7] was 0.00 ng/mL. The “Imputed Concentration, individual animals” value [7] was 0.00 ng/mL, the “Imputed Concentration, Mean” value [8] was 15.1 and the “Imputed Concentration, individual animals” value [8] was 14.5 and 20.5 and 10.3. For the same compound, the “Imputed Concentration, Mean” value [9] was 28.7, the “Imputed Concentration, individual animals” value [9] was 10.9 and 41.2 and 34.1 and the “Imputed Concentration, Mean” value [10] was 38.6. For the same compound, the “Imputed Concentration, individual animals” value [10] was 37.3 and 37.7 and 40.7, the “Imputed Concentration, Mean” value [11] was 22.1 and the “Imputed Concentration, individual animals” value [11] was 24.6 and 23.2 and 18.6. The “Imputed Concentration, Mean” value [12] was 0.00, the “Imputed Concentration, individual animals” value [12] was 0.00 and the “Imputed Concentration, Mean” value [13] was 34.5. The “Imputed Concentration, individual animals” value [13] was 20.2 and 49.1 and 34.2, the “Imputed Concentration, individual animals” value (brincidofovir 15 mg/kg 2-h IV infusion, female rats, Day 7, 8 h) was 36.4 and 54.2 and the “Imputed Concentration, Mean” value [14] was 5.35. For the same compound, the “Imputed Concentration, individual animals” value [14] was 8.97 and 0.00 and 7.08, the “Imputed Concentration, Mean” value [15] was 18.0 and the “Imputed Concentration, individual animals” value [15] was 25.9 and 13.1 and 15.1. For the same compound, the “Imputed Concentration, Mean” value [16] was 32.8, the “Imputed Concentration, individual animals” value [16] was 35.8 and 29.5 and 33.0 and the “Imputed Concentration, Mean” value [17] was 16.7. The “Imputed Concentration, individual animals” value [17] was 20.5 and 14.0 and 15.5, the “Imputed Concentration, Mean” value [18] was 0.00 and the “Imputed Concentration, individual animals” value [18] was 0.00. For the same compound, the “Imputed Concentration, Mean” value [19] was 24.0, the “Imputed Concentration, individual animals” value [19] was 38.8 and 15.0 and 18.3 and the “Imputed Concentration, individual animals” value (brincidofovir 15 mg/kg 2-h IV infusion, male rats, Day 7, 8 h) was 38.4 and 31.1 and 28.8.
